Data published in patent publication US5883076A, “Systemin” (Washington State University Research Foundation, Inc., priority 1994, dated 1999).
Where no end group is shown, it is not given here.

Assays:
[1] = Loss of inducing activity of purified systemin after acid hydrolysis or proteolytic enzymes; format: physicochemical
[2] = system: proteinase Inhibitor I and II; experiment: Proteinase inhibitor inducing activity supplied through cut stems/petioles of young tomato plants, radial immunodiffusion of leaf juice; format: in vivo, tomato (Lycopersicon esculentum)
Experimental: A search was initiated for systemic signals inducing proteinase Inhibitor I and II genes in tomato leaf extracts. […] The polypeptide was purified using high-performance liquid chromatography (HPLC, see Materials and Methods, below). Inducing activity of the polypeptide was assayed by cutting the petioles of young plants and introducing eluted fractions from column separations into the cut over a period of 30 min. The plants were subsequently transferred to small vials of water, incubated under constant light for 24 hours as described (C. A. Ryan, Plant Physiol. 54, 328, 1974), and the amount of proteinase Inhibitor I and II in the leaf juice was quantified by radial immunodiffusion in agar gels that contained rabbit antiserum to Inhibitor I or Inhibitor II (C. A. Ryan, Anal. Biochem. 19, 434, 1967; R. Trautman, K. Cowan, G. Wagner, Immunochemistry 8, 901, 1971). Over 30,000 young tomato plants were assayed over a 2.5 year period.
The leaves were incubated in solutions containing the synthetic systemin polypeptide and the proteinase inhibitors were assayed as described above in Example 1. Each data point was obtained from assays of the leaves of 36 tomato plants.

[3] = in vivo
[4] = in vivo; cited from earlier work
[5] = supplied to cut stems of young tomato plants

CSCC[C@H](NC(=O)[C@H](CCCCN)NC(=O)[C@@H]1CCCN1C(=O)[C@@H]1CCCN1C(=O)[C@H](CC(=O)O)NC(=O)[C@H](CCCNC(=N)N)NC(=O)[C@H](CCCCN)NC(=O)[C@H](CO)NC(=O)[C@@H]1CCCN1C(=O)[C@@H]1CCCN1C(=O)[C@H](CCCCN)NC(=O)[C@H](CO)NC(=O)[C@H](CCC(N)=O)NC(=O)[C@@H](NC(=O)[C@H](C)N)C(C)C)C(=O)N[C@@H](CCC(N)=O)C(=O)N[C@H](C(=O)N[C@@H](CC(=O)O)C(=O)O)[C@@H](C)O [systemin, NH3 -AVQSKPPSKRDPPKMQTD-COO-]
activity after acid hydrolysis [1]: total loss of activity | activity in the presence of trypsin and other proteolytic enzymes [1]: partial loss of activity | number of tomato plants in which the sample could induce maximal accumulation of proteinase inhibitors ([2]; step 6 sample, approximately 1 μg of protein): 40,000 tomato plants

NH3 -AVQSKPPSKRDPPKMQTD-COO- [synthetic systemin polypeptide]
activity on a molar basis relative to previously reported PIIF oligogalactunonide inducers ([2]; in vivo): about 10^5 times | amount of polypeptide required to produce half maximal accumulation of Inhibitors I and II [2, 5]: About 40 fmol per plant | bioactivity for inducing synthesis and accumulation of Inhibitor I and II compared with native systemin [2, 5]: as effective as the native systemin polypeptide

^14 C-labeled polypeptide: synthetic systemin with [14C] Ala added to residues 2 through 18 (AVQSKPPSKRDPPKMQTD; also: 14C label, positions not clearly stated; UniProt P27058 179-196, looked up)
time for radioactivity to move throughout the leaf [3]: ≤ 30 min | time to identification of radiolabeled systemin in phloem exudate by HPLC [3]: 1 to 2 h

α-1, 4-oligogalacturonides
mobility from wound sites [4]: not found to be mobile
